Assay [1] relates to BDNF-induced allodynia. As to the kind of experiment: Mechanical allodynia induced by intrathecal administration of BDNF in healthy rats (von Frey filaments test). Format: in vivo, rat. As to the method:
In a first part of this study, BDNF (0.3 ng in 25 μl of saline per rat) or saline (25 μl) was injected intrathecally in adult male rats slightly anesthetized with isoflurane (according to Mestre et al. (1994), J. Pharmacol. Toxicol. Meth., 32, 197-200), and animals were subjected to von Frey filaments test applied to hindpaws at various times thereafter.
In a second part of this study, tapentadol (3 or 10 mg/kg i.p.) or saline was administered to rats on the 7th day (Time=0 on abscissa) after intrathecal injection of BDNF (Time=C) as described above. Pressure threshold values were determined using von Frey filaments test applied to hindpaws.
In a first part of this study (A), reboxetine (10 mg/kg i.p.; mesylate, Ascent Scientific, Bristol, UK), tapentadol (10 mg/kg i.p.) or saline (0.5 ml i.p./rat) was injected on the 7th day after intrathecal administration of BDNF (0.3 ng in 25 μl of saline per rat). Pressure threshold values were determined at various times thereafter using von Frey filaments test applied to hindpaws.

For assay [2], the system named is CCI-SN rats. As to the kind of experiment: Randall-Selitto test in CCI-SN rats. Format: in vivo, rat. As to conditions: 10 mg/kg i.p., acute. As to the method:
Rats are anaesthetized with sodium pentobarbital (50 mg/kg i.p.). Unilateral CCI-SN is performed under direct visual control using a Zeiss microscope (10-25×) essentially as described by Bennett and Xie (G. J. Bennett et al., Pain, 33 (1988) 87-107).
Pain is produced by applying increasing pressure (0-450 g/mm^2) with a punch (0.2 mm tip diameter) on the rat's hind paw. The measured value to be determined is the pressure at which either a hindpaw withdrawal response or a vocalisation reaction of the animal occurs.
Tapentadol (10 mg/kg i.p.) or its vehicle (0.9% NaCl i. p.) was injected in CCI-SN rats acutely 14 days after surgery. Pressure threshold values to trigger hindpaw withdrawal (A) or vocalization (B) were determined using the Randall-Selitto test at various times after acute i.p. administration (Time=0) of Tapentadol or saline.
The results are summarized and depicted in FIG. 1 (A and B). Each point is the mean±S.E.M. of 3-4 independent determinations. * P<0.05 compared to pressure threshold values in the same rats before surgery (C on abscissa); Dunnett's test.

For assay [3] the following is noted: human, in vivo; cited from earlier work.
Assay [4] deals with recombinantly produced μ-opioid receptor (Homo sapiens, UniProt P35372). As to conditions: cited from earlier work.
Chain of recombinantly produced μ-opioid receptor (P35372 whole entry): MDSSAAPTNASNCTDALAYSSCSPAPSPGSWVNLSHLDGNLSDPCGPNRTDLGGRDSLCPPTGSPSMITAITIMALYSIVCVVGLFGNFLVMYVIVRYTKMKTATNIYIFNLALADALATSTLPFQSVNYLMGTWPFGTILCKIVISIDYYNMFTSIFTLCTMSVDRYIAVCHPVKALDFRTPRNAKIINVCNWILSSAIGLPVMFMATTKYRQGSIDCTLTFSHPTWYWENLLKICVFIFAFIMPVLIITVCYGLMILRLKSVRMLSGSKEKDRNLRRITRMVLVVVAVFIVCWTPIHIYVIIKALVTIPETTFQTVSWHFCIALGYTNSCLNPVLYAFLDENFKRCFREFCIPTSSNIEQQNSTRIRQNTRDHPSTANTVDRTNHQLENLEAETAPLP
Assay [5] relates to mRNA encoding ATF3, IL-6, BDNF and iNOS. As to the kind of experiment: Real-time qRT-PCR of mRNA levels in ganglia and central tissues of CCI-SN rats. Particulars: subchronic 10 mg/kg i.p. twice daily; ipsilateral DRG and dorsal quadrant of lumbar spinal cord; day 20. Format: in vivo, rat. As to the method: Real-time qRT-PCR determinations were made on the 20th day after CCI-SN or sham operation. Saline or Tapentadol was administered at days 16-20 under treatment conditions according to Example 2 (subchronic treatment conditions). Rats were decapitated 4 h after the last injection on day 20, tissues were immediately dissected in the cold (0° C.) and processed for mRNA extraction and quantification as described by Latrémolière et al. (J. Neurosci. 2008, 28, 8489-8501).
mRNA levels are expressed with reference to transcript encoding the […] GaPDH (glyceraldehyde 3-phosphate dehydrogenase). Each bar is the mean±S.E.M. of 4-6 independent determinations.
Background: In qPCR the cycle at which signal appears reflects the starting amount.

The structures appear in SMILES notation.

Consider 1 compound from patent publication US20190274974A1, “Treatment of Pain Associated with Trigeminal Neuralgia” (priority 2011, published 2019).

`CC[C@@H](c1cccc(O)c1)[C@@H](C)CN(C)C` [tapentadol, (−)-(1R,2R)-3-(3-dimethylamino-1-ethyl-2-methyl-propyl)-phenol]: the “time at which the maximal increase in pressure threshold was reached” value in assay [1] (10 mg/kg i.p.) stood at 15 min. The “pressure threshold values compared to untreated healthy rats” value in assay [1] (10 mg/kg i.p., 15-30 min after injection) is on record as “return of pressure threshold values up to levels determined in untreated healthy rats”. Also, in assay [1] (3 or 10 mg/kg i.p., 7th day after intrathecal BDNF), the “reversal of BDNF-induced allodynia, dose dependence” value is “reversed BDNF-induced allodynia in a dose-dependent manner”. Further, in assay [2] (14 days after surgery), the “duration of the increase in pressure threshold values (hindpaw withdrawal and vocalization)” value is recorded as “at least 60 min”. Besides, the “pressure threshold values to trigger vocalization relative to untreated healthy rats” value in assay [2] (first 45 min after administration) was “+20%”. In addition, the “pressure threshold values to cause hindpaw withdrawal compared to intact healthy rats before surgery” value in assay [2] (first hour after treatment) is “did not significantly differ from those determined in intact healthy rats”. Besides, the “pain-alleviating action relative to morphine” value in assay [3] is “two to three times less”. Moreover, in assay [4], the “affinity to the μ-opioid receptor, times less than that of morphine” value was 18 times. The “levels of mRNA encoding ATF3, IL-6, BDNF and iNOS versus saline-treated CCI-SN rats” value in assay [5] is “not significantly different”.
